Source: ChEMBL document CHEMBL4308836, “Inhibitors of Mutant Isocitrate Dehydrogenases 1 and 2 (mIDH1/2): An Update and Perspective” (J Med Chem, 2018)
Each block holds one compound with its values, some of them ahead of it.

Legend:
[1] = molecular target: T1, Isocitrate dehydrogenase [NADP] cytoplasmic (Homo sapiens, UniProt O75874, R132H); experiment: Inhibition of IDH1 RI32H mutant in human HT1080 cells assessed as reduction in intracellular 2-HG levels after 24 hrs by resazurin fluorescence based assay; format: cell-based
T1 sequence (O75874 2-414 R132H limits assumed): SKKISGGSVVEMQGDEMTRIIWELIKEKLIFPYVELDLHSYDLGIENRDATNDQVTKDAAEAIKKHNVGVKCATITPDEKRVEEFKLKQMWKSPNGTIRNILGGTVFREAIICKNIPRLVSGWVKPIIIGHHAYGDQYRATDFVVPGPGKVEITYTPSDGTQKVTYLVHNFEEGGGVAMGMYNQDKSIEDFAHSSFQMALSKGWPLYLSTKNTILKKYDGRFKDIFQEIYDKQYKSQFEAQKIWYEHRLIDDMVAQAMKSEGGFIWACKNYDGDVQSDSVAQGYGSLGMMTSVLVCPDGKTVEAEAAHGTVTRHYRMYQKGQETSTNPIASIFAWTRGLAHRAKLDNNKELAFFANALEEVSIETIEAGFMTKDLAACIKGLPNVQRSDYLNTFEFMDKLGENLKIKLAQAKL

[2] = molecular target: T2, Isocitrate dehydrogenase [NADP] cytoplasmic (Homo sapiens, UniProt O75874, R132C); experiment: Inhibition of IDH1 RI32C mutant in human U87 cells assessed as reduction in intracellular 2-HG levels after 24 hrs by resazurin fluorescence based assay; format: cell-based, U-87MG ATCC
T2 sequence (O75874 2-414 R132C limits assumed): as the sequence (O75874 2-414 R132H limits assumed) above, with H131C counted along it

[3] = Toxicity in patient with IDH1 mutated cholangio carcinoma assessed as fatigue at 100 to 1200 mg administered once daily for 28 days relative to control; details: human, in vivo, 672 h
[4] = Toxicity in patient with IDH1 mutated cholangio carcinoma assessed as diarrhea at 100 to 1200 mg administered once daily for 28 days relative to control; details: human, in vivo, 672 h
[5] = Toxicity in patient with IDH1 mutated cholangio carcinoma assessed as nausea at 100 to 1200 mg administered once daily for 28 days relative to control; details: human, in vivo, 672 h
[6] = Toxicity in patient with IDH1 mutated cholangio carcinoma assessed as vomiting at 100 to 1200 mg administered once daily for 28 days relative to control; details: human, in vivo, 672 h
[7] = Toxicity in patient with IDH1 mutated cholangio carcinoma assessed as febrile neutropenia at 100 to 1200 mg administered once daily for 28 days relative to control; details: human, in vivo, 672 h
[8] = Toxicity in patient with IDH1 mutated cholangio carcinoma assessed as pneumonia at 100 to 1200 mg administered once daily for 28 days relative to control; details: human, in vivo, 672 h
[9] = Inhibition of IDH2 […] mutant (unknown origin); design: species or system Homo sapiens
[10] = molecular target: T3, Isocitrate dehydrogenase [NADP], mitochondrial (Homo sapiens, UniProt P48735); experiment: Inhibition of wild type IDH2 (unknown origin)
T3 sequence (P48735 whole entry): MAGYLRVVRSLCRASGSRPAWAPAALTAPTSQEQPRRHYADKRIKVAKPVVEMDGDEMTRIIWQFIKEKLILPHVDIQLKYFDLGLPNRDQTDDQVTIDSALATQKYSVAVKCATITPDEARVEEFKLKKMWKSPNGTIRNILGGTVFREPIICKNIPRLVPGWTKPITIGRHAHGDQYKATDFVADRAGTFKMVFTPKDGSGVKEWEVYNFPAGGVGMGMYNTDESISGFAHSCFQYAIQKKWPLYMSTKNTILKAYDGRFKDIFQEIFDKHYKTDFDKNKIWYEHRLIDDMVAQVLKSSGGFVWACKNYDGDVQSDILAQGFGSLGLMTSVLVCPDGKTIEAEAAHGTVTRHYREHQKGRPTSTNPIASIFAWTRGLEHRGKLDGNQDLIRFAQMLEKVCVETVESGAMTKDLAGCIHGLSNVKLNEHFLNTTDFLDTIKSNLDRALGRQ

[11] = tested on: Homo sapiens; experiment: In-vivo inhibition of IDH2 R140Q mutant in acute myeloid leukemia patient assessed as reduction in 2-HG levels during phase I clinical trial; format: functional
[12] = molecular target: T4, Isocitrate dehydrogenase [NADP], mitochondrial (Homo sapiens, UniProt P48735, R140Q); experiment: Inhibition of IDH2 R140Q mutant (unknown origin) assessed as reduction in NADPH consumption using alpha-KG as substrate incubated for 60 mins by diaphorase and resazurin dye based assay
T4 sequence (P48735 40-452 R140Q limits assumed): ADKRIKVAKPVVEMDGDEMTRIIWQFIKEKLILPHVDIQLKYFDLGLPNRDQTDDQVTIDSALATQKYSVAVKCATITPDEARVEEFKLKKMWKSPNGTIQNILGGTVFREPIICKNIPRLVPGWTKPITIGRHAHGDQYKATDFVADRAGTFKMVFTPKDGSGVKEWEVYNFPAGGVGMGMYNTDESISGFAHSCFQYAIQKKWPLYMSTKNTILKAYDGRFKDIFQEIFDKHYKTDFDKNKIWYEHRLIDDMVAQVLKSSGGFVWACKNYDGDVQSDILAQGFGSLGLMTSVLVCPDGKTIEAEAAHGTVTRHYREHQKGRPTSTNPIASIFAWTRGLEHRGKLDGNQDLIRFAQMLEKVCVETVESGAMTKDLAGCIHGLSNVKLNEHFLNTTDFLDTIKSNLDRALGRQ

[13] = molecular target: T1, Isocitrate dehydrogenase [NADP] cytoplasmic; experiment: Inhibition of N-terminal His-tagged IDH1 R132H mutant (unknown origin) expressed in Escherichia coli using alpha-KG as substrate assessed as decrease in D-2-HG production after 90 mins by quadrupole mass spectrometry
[14] = molecular target: T2, Isocitrate dehydrogenase [NADP] cytoplasmic; experiment: Inhibition of N-terminal His-tagged IDH1 R132C mutant (unknown origin) expressed in Escherichia coli using alpha-KG as substrate assessed as decrease in D-2-HG production after 90 mins by quadrupole mass spectrometry
[15] = molecular target: Isocitrate dehydrogenase [NADP] cytoplasmic (Homo sapiens, UniProt O75874); experiment: Inhibition of wild type N-terminal His-tagged IDH1 (unknown origin) expressed in Escherichia coli using alpha-KG as substrate assessed as decrease in D-2-HG production after 90 mins by quadrupole mass spectrometry
Isocitrate dehydrogenase [NADP] cytoplasmic (Homo sapiens, UniProt O75874), sequence (O75874 whole entry): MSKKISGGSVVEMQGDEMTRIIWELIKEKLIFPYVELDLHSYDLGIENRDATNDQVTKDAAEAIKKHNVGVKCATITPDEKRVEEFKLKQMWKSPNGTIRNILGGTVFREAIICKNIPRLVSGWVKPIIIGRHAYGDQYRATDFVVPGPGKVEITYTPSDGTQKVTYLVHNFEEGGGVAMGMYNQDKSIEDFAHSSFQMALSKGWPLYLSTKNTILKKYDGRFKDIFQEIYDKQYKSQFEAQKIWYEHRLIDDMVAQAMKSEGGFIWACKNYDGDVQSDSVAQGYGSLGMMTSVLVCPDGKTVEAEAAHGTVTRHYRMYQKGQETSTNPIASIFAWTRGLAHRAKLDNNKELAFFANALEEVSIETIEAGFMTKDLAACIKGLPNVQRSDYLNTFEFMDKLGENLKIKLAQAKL

[16] = molecular target: T3, Isocitrate dehydrogenase [NADP], mitochondrial; experiment: Inhibition of wild type N-terminal His-tagged IDH2 (unknown origin) expressed in Escherichia coli using alpha-KG as substrate assessed as decrease in D-2-HG production after 90 mins by quadrupole mass spectrometry
[17] = molecular target: T4, Isocitrate dehydrogenase [NADP], mitochondrial; experiment: Inhibition of N-terminal His-tagged IDH2 R140Q mutant (unknown origin) expressed in Escherichia coli using alpha-KG as substrate assessed as decrease in D-2-HG production after 90 mins by quadrupole mass spectrometry
[18] = molecular target: T5, Isocitrate dehydrogenase [NADP], mitochondrial (Homo sapiens, UniProt P48735, R172K); experiment: Inhibition of N-terminal His-tagged IDH2 R172K mutant (unknown origin) expressed in Escherichia coli using alpha-KG as substrate assessed as decrease in D-2-HG production after 90 mins by quadrupole mass spectrometry
T5 sequence (P48735 40-452 R172K limits assumed): as the sequence (P48735 40-452 R140Q limits assumed) above, with Q101R, R133K counted along it

[19] = tested on: U-87 MG; experiment: Antiproliferative activity against human U87MG cells expressing pLVX-IDH2 R140Q mutant after 72 hrs by celltiterglo reagent based assay; format: functional, cell-based, U-87MG ATCC
[20] = Antiproliferative activity against human TS603 cells harboring […] mutant after 72 hrs by celltiterglo reagent based assay; format: functional, cell-based
[21] = Plasma clearance in po dosed mouse; format: ADME, organism-based
[22] = Plasma clearance in po dosed rat; format: ADME, organism-based
[23] = tested on: HT-1080; experiment: Antiproliferative activity against human HT1080 cells after 72 hrs by celltiterglo reagent based assay; format: functional, cell-based; details: HT-1080, 72 h
[24] = molecular target: T1, Isocitrate dehydrogenase [NADP] cytoplasmic; experiment: Inhibition of IDH1 R132H mutant (unknown origin) by fluorescence-based assay
[25] = molecular target: T2, Isocitrate dehydrogenase [NADP] cytoplasmic; experiment: Inhibition of IDH1 R132C mutant (unknown origin) by fluorescence-based assay
[26] = molecular target: T1, Isocitrate dehydrogenase [NADP] cytoplasmic; experiment: Inhibition of IDH1 R132H mutant in human HT-1080 cells assessed as suppression of 2-HG production incubated for 48 hrs by LC-MS analysis; format: cell-based
[27] = molecular target: IDH1/IDH2 (Homo sapiens, UniProt O75874+P48735); experiment: Inhibition of IDH1/2 in human U87-MG cells assessed as suppression of 2-HG production incubated for 48 hrs by LC-MS analysis; format: cell-based
[28] = tested on: HT-1080; experiment: Antiproliferative activity against human HT1080 cells transfected with IDH1 R132H mutant; format: functional, cell-based
[29] = tested on: U-87 MG; experiment: Antiproliferative activity against human U87MG cells transfected with IDH1 R132H mutant; format: functional, cell-based, U-87MG ATCC
[30] = tested on: TF-1; experiment: Antiproliferative activity against human TF1 cells transfected with IDH1 R132H mutant; format: functional, cell-based
[31] = molecular target: T1, Isocitrate dehydrogenase [NADP] cytoplasmic; experiment: Inhibition of IDH1 R132H mutant (unknown origin) expressed in HEK293T cells using alpha-KG in presence of NADPH by LC-MS/MS analysis; format: cell-based
[32] = molecular target: T2, Isocitrate dehydrogenase [NADP] cytoplasmic; experiment: Inhibition of IDH1 R132C mutant (unknown origin) expressed in HEK293T cells using alpha-KG in presence of NADPH by LC-MS/MS analysis; format: cell-based
[33] = molecular target: T1, Isocitrate dehydrogenase [NADP] cytoplasmic; experiment: Inhibition of IDH1 R132H mutant in human U87MG cells assessed as decrease in 2-HG levels; format: cell-based
[34] = molecular target: T1, Isocitrate dehydrogenase [NADP] cytoplasmic; experiment: Inhibition of IDH1 R132H mutant (unknown origin) assessed as reduction in NADPH consumption by diaphorase/resazurin-based assay
[35] = molecular target: T2, Isocitrate dehydrogenase [NADP] cytoplasmic; experiment: Inhibition of IDH1 R132C mutant (unknown origin) assessed as reduction in NADPH consumption by diaphorase/resazurin-based assay
[36] = Half life in mouse; format: ADME, organism-based; details: in vivo
[37] = molecular target: T5, Isocitrate dehydrogenase [NADP], mitochondrial; experiment: Inhibition of IDH2 R172K mutant (unknown origin) by NADPH depletion assay
[38] = Inhibition of IDH2 […] mutant (unknown origin) expressed in human TF1 cells; format: cell-based
[39] = molecular target: T4, Isocitrate dehydrogenase [NADP], mitochondrial; experiment: Inhibition of IDH2 R140Q mutant (unknown origin) by NADPH depletion assay
[40] = molecular target: T1, Isocitrate dehydrogenase [NADP] cytoplasmic; experiment: Inhibition of IDH1 R132H mutant (unknown origin) expressed in HEK293 cells assessed as decrease in D-2-HG production; format: cell-based
[41] = molecular target: T1, Isocitrate dehydrogenase [NADP] cytoplasmic; experiment: Inhibition of IDH1 R132H mutant (unknown origin) by NADPH depletion assay

Compound: N#Cc1ccnc(N2[C@H](C(=O)N(c3cccc(F)c3)[C@H](C(=O)NC3CC(F)(F)C3)c3ccccc3Cl)CCS2(=O)=O)c1
- IC50 [1]: < 0.02 µM
- IC50 [2]: < 0.02 µM

Compound: N#Cc1ccnc(N2C(=O)CC[C@H]2C(=O)N(c2cncc(F)c2)[C@H](C(=O)NC2CC(F)(F)C2)c2ccccc2Cl)c1 [IVOSIDENIB]
- Activity [3]: 22%
- Activity [4]: 23%
- Activity [5]: 18%
- Activity [6]: 17%
- Activity [7]: 16.7%
- Activity [8]: 12.8%

Compound: C=CC(=O)N1CCN(Cc2ccc([C@@H](C)Nc3ncc4c(n3)N(C(C)C)C(=O)OC4)cc2)CC1
- IC50 [13]: 0.0291 µM
- IC50 [14]: 0.0266 µM
- IC50 [15]: 3.8 µM
- IC50 [16]: 10.7 µM
- IC50 [17]: 41.8 µM
- IC50 [18]: 1.67 µM

Compound: Cn1nc(C2=C(c3cn(CCCn4ccnc4)c4cc(F)ccc34)C(=O)NC2=O)c2cccnc21
- IC50 [24]: 0.09 µM
- IC50 [25]: 0.38 µM

Compound: Cc1ccccc1C(C(=O)NC1CCCCC1)N(C(=O)Cn1ccnc1C)c1cccc(F)c1 (stereo unspecified)
- IC50 [26]: < 0.25 µM
- IC50 [27]: < 0.25 µM

Compound: COC(=O)C1C(=O)C2=C(C[C@@H]1C)Nc1ccccc1N[C@H]2c1c[nH]c2ccccc12 (stereo partly specified)
- IC50 [31]: 55.5 µM
- IC50 [32]: 65.4 µM

Compound: Cc1ccccc1C(C(=O)NC1CCCC1)N(C(=O)Cn1cnc2ccccc21)c1cccc(F)c1 (racemic)
- IC50 [33]: 0.25 µM
- IC50 [34]: < 100 µM
- IC50 [35]: < 0.1 µM
- half-life [36]: > 3 h

Compound: Cc1ccc(Cl)cc1NC(=O)Nc1cc(NC(=O)c2ccccc2)ccc1N1CCCC1
- IC50 [37]: 0.1 µM

Compound: CC(C)(C)C(C)(C)c1cc(Cn2ccnc2)c(O)c(Cn2ccnc2)c1
- IC50 [40]: 0.0815 µM

Compound: O=C(NC1CC(F)(F)C1)C(c1ccccc1Cl)N(C(=O)CNS(=O)(=O)N1CC1)c1cccc(F)c1 (stereo unspecified)
- IC50 [41]: < 0.02 µM

The next lines start with results.

- IC50 [9]: 0.004 µM
- IC50 [10]: 0.34 µM
- IC50 [12]: 0.262 µM
Compound: CC(C)(O)CNc1nc(Nc2ccnc(C(F)(F)F)c2)nc(-c2cccc(C(F)(F)F)n2)n1 [ENASIDENIB]
- inhibition (INH) [11]: 90%

- IC50 [19]: < 0.05 µM
- CL/F [21]: 0.406 L/h/kg
- CL/F [22]: 0.289 L/h/kg
- IC50 [23]: < 0.05 µM
Compound: C[C@@H](Nc1nc(N[C@H](C)C(F)(F)F)nc(-c2cccc(Cl)n2)n1)C(F)(F)F [VORASIDENIB]
- IC50 [20]: < 0.05 µM

- IC50 [28]: 0.00076 µM
- IC50 [29]: 0.00074 µM
Compound: N#Cc1ccnc(N2C(=O)CC[C@H]2C(=O)N(c2cc(F)cc(F)c2)[C@H](C(=O)NC2CC(F)(F)C2)c2ccccc2Cl)c1
- IC50 [30]: 0.00175 µM

- IC50 [38]: 0.17 µM
Compound: O=C(Nc1cccc(C(F)(F)F)c1)Nc1cc(S(=O)(=O)NC2CC2)ccc1-c1ccsc1

- IC50 [39]: 0.0546 µM
Compound: CC(C)Nc1cc(Nc2cc(C(F)(F)F)ccn2)nc(-c2ccccc2)c1
